IC50 and melting point data for 24 compounds are collected here from patent US7342014B2, “Diamine derivatives” (Daiichi Pharmaceutical Co., Ltd., priority 2001, dated 2008).

Counter-ions that a name gives are not always drawn.

Data set [1] deals with T1, human FXa (Homo sapiens, UniProt P00742).
T1 construct: purchased Enzyme Research Labolatories, Inc
Description: Determination of human FXa-inhibiting effect (IC50 value). The format is biochemical. The note with it: human FXa, substrate S-2222, absorbance at 405 nm, room temperature; read-out: Human FXa-inhibiting effect (IC50). From the text: Determination of Human FXa-inhibiting Effect (IC50 Value)
As a control, Tris buffer was used in place of the test compound.

As a reminder, the IC50 is the concentration that inhibits the measured activity by half. What is called melting point is the temperature of the solid-liquid transition.

T1 sequence (P00742 235-488 limits assumed): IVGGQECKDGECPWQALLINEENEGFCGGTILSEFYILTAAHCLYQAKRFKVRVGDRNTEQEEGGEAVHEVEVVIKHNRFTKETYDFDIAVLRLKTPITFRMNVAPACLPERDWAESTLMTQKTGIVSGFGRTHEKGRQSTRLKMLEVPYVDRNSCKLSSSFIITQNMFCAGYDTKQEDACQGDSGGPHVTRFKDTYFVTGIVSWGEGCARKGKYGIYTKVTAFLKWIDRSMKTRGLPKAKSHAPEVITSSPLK
T1 sequence (P00742 41-179 partner limits assumed): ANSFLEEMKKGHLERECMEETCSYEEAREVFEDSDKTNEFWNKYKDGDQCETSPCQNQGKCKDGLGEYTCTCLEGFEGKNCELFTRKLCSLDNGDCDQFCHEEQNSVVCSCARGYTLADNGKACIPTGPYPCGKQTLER

With `CCNC(=O)[C@H]1CC[C@H](NC(=O)c2cc3cc(Cl)ccc3[nH]2)[C@H](NC(=O)c2nc3c(s2)CN(C)CC3)C1` [Example 62, N-{(1R,2S,5S)-2-{[(5-Chloroindol-2-yl)carbonyl]amino}-5-[(ethylamino)carbonyl]cyclohexyl}-5-methyl-4,5,6,7-tetrahydrothiazolo[5,4-c]pyridine-2-carboxamide hydrochloride], the 50% inhibitory concentration (IC50) in data set [1] is 3.5 nM. Same read-out and setting: to `CN1CCc2nc(C(=O)N[C@@H]3C[C@@H](C(=O)N(C)C)CC[C@@H]3NC(=S)C(=O)Nc3ccc(Cl)cn3)sc2C1` [Ex. 247, N-{(1R,2S,5S)-2-({2-[(5-Chloropyridin-2-yl)amino]-2-oxoethanethioyl}amino)-5-[(dimethylamino)carbonyl]-cyclohexyl}-5-methyl-4,5,6,7-tetrahydrothiazolo[5,4-c]-pyridine-2-carboxamide] belongs 1.9 nM. The same measure, in the same setting: to `CN1CCc2nc(C(=O)N[C@@H]3C[C@@H](C(=O)N(C)C)CC[C@@H]3NC(=O)C(=S)Nc3ccc(Cl)cn3)sc2C1` [Ex. 248, N-{(1R,2S,5S)-2-({2-[(5-Chloropyridin-2-yl)amino]-2-thioxoacetyl}amino)-5-[(dimethylamino)carbonyl]-cyclohexyl}-5-methyl-4,5,6,7-tetrahydrothiazolo[5,4-c]-pyridine-2-carboxamide] belongs 5.4 nM; to `CN1CCc2nc(C(=O)N[C@@H]3CCCC[C@@H]3NC(=O)c3ccc4cc(Cl)ccc4c3)sc2C1` (relative stereo) [Example 7, N-{(1R*,2S*)-2-[(6-Chloronaphthoyl)amino]cyclohexyl}-5-methyl-4,5,6,7-tetrahydrothiazolo[5,4-c]pyridine-2-carboxamide hydrochloride], 83 nM. `CN1CCc2nc(C(=O)N[C@@H]3CN(C(=O)CC(C)(C)C)CC[C@@H]3NC(=O)c3cc4cc(Cl)ccc4[nH]3)sc2C1` (relative stereo) (as salt: hydrochloride) [Example 136, N-[(3R*,4S*)-4-{[(5-Chloroindol-2-yl)carbonyl]amino}-1-(3,3-dimethylbutanoyl)piperidin-3-yl]-5-methyl-4,5,6,7-tetrahydrothiazolo[5,4-c]pyridine-2-carboxamide hydrochloride]: the melting point was 260 to 265 °C (dec.). The same measure, in the same setting: in the case of `COCC(=O)N1CC[C@H](NC(=O)c2cc3cc(Cl)ccc3[nH]2)[C@H](NC(=O)c2nc3c(s2)CN(C)CC3)C1` (as salt: hydrochloride) [Example 171, N-[(3R,4S)-4-{[(5-Chloroindol-2-yl)carbonyl]amino}-1-(2-methoxyacetyl)piperidin-3-yl]-5-methyl-4,5,6,7-tetrahydro-thiazolo[5,4-c]pyridine-2-carboxamide hydrochloride] it was 207 to 220 °C (dec.); in that of `CN1CCc2nc(C(=O)N[C@@H]3CN(C(=O)C4CC4)CC[C@@H]3NC(=O)c3cc4cc(Cl)ccc4[nH]3)sc2C1` (relative stereo) (as salt: hydrochloride) [Example 138, N-[(3R*,4S*)-4-{[(5-Chloroindol-2-yl)carbonyl]amino}-1-(cyclopropylcarbonyl)piperidin-3-yl]-5-methyl-4,5,6,7-tetrahydrothiazolo[5,4-c]pyridine-2-carboxamide hydrochloride], 280 to 286 °C (dec.).

With `CC(C)N1CCc2nc(C(=O)N[C@@H]3CN(S(C)(=O)=O)C[C@H]3NC(=O)c3cc4cc(Cl)ccc4[nH]3)sc2C1` (as salt: hydrochloride), the melting point is 230 to 235 °C (dec.).

Take `COCC(=O)N1CC[C@H](NC(=O)c2cc3cc(Cl)ccc3[nH]2)[C@H](NC(=O)c2nc3c(s2)CN(C)CC3)C1` (relative stereo) (as salt: hydrochloride) [Example 143, N-[(3R*,4S*)-4-{[(5-Chloroindol-2-yl)carbonyl]amino}-1-(2-methoxyacetyl)piperidin-3-yl]-5-methyl-4,5,6,7-tetrahydro-thiazolo[5,4-c]pyridine-2-carboxamide hydrochloride]: the melting point was 214 to 228 °C (dec.). Still for that read-out and setting: to `CN1CCc2nc(C(=O)N[C@@H]3CN(C(=O)C4CCC4)CC[C@@H]3NC(=O)c3cc4cc(Cl)ccc4[nH]3)sc2C1` (relative stereo) (as salt: hydrochloride) belongs 271 to 275 °C (dec.); to `COCC(C)(C)C(=O)N1CC[C@H](NC(=O)c2cc3cc(Cl)ccc3[nH]2)[C@H](NC(=O)c2nc3c(s2)CN(C)CC3)C1` (relative stereo) [Example 147, N-[(3R*,4S*)-4-{[(5-chloroindol-2-yl)carbonyl]amino}-1-(3-methoxy-2,2-dimethylpropanoyl)piperidin-3-yl)-5-methyl-4,5,6,7-tetrahydrothiazolo[5,4-c]pyridine-2-carboxamide], 240 °C (dec.); to `CN1CCc2nc(C(=O)N[C@@H]3CCS(=O)(=O)C[C@@H]3NC(=O)c3cc4cc(F)ccc4[nH]3)sc2C1` (relative stereo) (as salt: hydrochloride) [Example 183, N-((3R*,4R*)-3-{[(5-Fluoroindol-2-yl)carbonyl]amino}-1,1-dioxohexahydro-1-thiopyran-4-yl)-5-methyl-4,5,6,7-tetrahydrothiazolo[5,4-c]pyridine-2-carboxamide hydrochloride], 244 to 249 °C.

As to `CN1CCc2nc(C(=O)N[C@@H]3CN(S(C)(=O)=O)CC[C@@H]3NC(=O)c3cc4cc(F)ccc4[nH]3)sc2C1` (relative stereo) (as salt: hydrochloride) [Example 128], the melting point is 216 to 250 °C (dec.). Consider `COCC(=O)N1CC[C@H](NC(=O)c2cc3cc(F)ccc3[nH]2)[C@H](NC(=O)c2nc3c(s2)CN(C)CC3)C1` (relative stereo) (as salt: hydrochloride), for which the melting point is 190 to 208 °C (dec.).

As to `CN1CCc2nc(C(=O)N[C@@H]3CN(CCF)CC[C@@H]3NC(=O)c3cc4cc(Cl)ccc4[nH]3)sc2C1` (relative stereo) (as salt: hydrochloride) [Example 168, N-[(3R*,4S*)-4-{[(5-Chloroindol-2-yl)carbonyl]amino}-1-(2-fluoroethyl)piperidin-3-yl]-5-methyl-4,5,6,7-tetrahydro-thiazolo[5,4-c]pyridine-2-carboxamide dihydrochloride], the melting point is 228 to 233 °C (dec.). Turning to `CN1CCc2nc(C(=O)N[C@@H]3CNCC[C@@H]3NC(=O)c3cc4cc(F)ccc4[nH]3)sc2C1` (relative stereo) (as salt: hydrochloride) [Example 122, N-((3R*,4S*)-4-{[(5-Fluoroindol-2-yl)carbonyl]amino}-piperidin-3-yl)-5-methyl-4,5,6,7-tetrahydrothiazolo[5,4-c]pyridine-2-carboxamide dihydrochloride], the melting point was 236 to 245 °C (dec.). On the same count and under the same terms, in the case of `CC(=O)N1C[C@@H](NC(=O)c2cc3cc(Cl)ccc3[nH]2)[C@H](NC(=O)c2nc3c(s2)CN(C(C)C)CC3)C1` (as salt: hydrochloride) [Example 114, N-((3R,4R)-1-Acetyl-4-{[(5-chloroindol-2-yl)carbonyl]-amino}pyrrolidin-3-yl)-5-isopropyl-4,5,6,7-tetrahydro-thiazolo[5,4-c]pyridine-2-carboxamide hydrochloride] it was 254 to 258 °C (dec.); in that of `CN1CCc2nc(C(=O)N[C@@H]3CN(C(=O)C(C)(C)CO)CC[C@@H]3NC(=O)c3cc4cc(Cl)ccc4[nH]3)sc2C1` (relative stereo) [Example 146, N-[(3R*,4S*)-4-{[(5-chloroindol-2-yl)carbonyl]amino}-1-(3-hydroxy-2,2-dimethylpropanoyl)piperidin-3-yl)-5-methyl-4,5,6,7-tetrahydrothiazolo[5,4-c]pyridine-2-carboxamide], 220 °C (dec.). Still for that read-out and setting: in the case of `CN1CCc2nc(C(=O)N[C@@H]3CN(C(=O)C(C)(C)O)CC[C@@H]3NC(=O)c3cc4cc(Cl)ccc4[nH]3)sc2C1` (relative stereo) [Example 149, N-[(3R*,4S*)-4-{[(5-Chloroindol-2-yl)carbonyl]amino}-1-(2-hydroxy-2-methylpropanoyl)piperidin-3-yl]-5-methyl-4,5,6,7-tetrahydrothiazolo[5,4-c]pyridine-2-carboxamide] it was 190 °C (dec.); in that of `CN1CCc2nc(C(=O)N[C@@H]3CS(=O)(=O)CC[C@@H]3NC(=O)c3cc4cc(F)ccc4[nH]3)sc2C1` (relative stereo) (as salt: hydrochloride) [Example 179, N-((3R*,4R*)-4-{[(5-Fluoroindol-2-yl)carbonyl]amino}-1,1-dioxohexahydro-1-thiopyran-3-yl)-5-methyl-4,5,6,7-tetrahydrothiazolo[5,4-c]pyridine-2-carboxamide hydrochloride], 243 to 245 °C. As to `COC1CC(C(=O)N2CC[C@H](NC(=O)c3cc4cc(Cl)ccc4[nH]3)[C@H](NC(=O)c3nc4c(s3)CN(C)CC4)C2)C1` (relative stereo) (as salt: hydrochloride), the melting point was 191 °C (dec.).

`CN1CCc2nc(C(=O)N[C@@H]3CCS(=O)(=O)C[C@@H]3NC(=O)c3cc4cc(Cl)ccc4[nH]3)sc2C1` (relative stereo) (as salt: hydrochloride) [Example 180, N-((3R*,4R*)-3-{[(5-Chloroindol-2-yl)carbonyl]amino}-1,1-dioxohexahydro-1-thiopyran-4-yl)-5-methyl-4,5,6,7-tetrahydrothiazolo[5,4-c]pyridine-2-carboxamide hydrochloride]: the melting point lay in the range of 242 to 247 °C. The compound `COCC(=O)N1CC[C@@H](NC(=O)c2cc3cc(Cl)ccc3[nH]2)[C@H](NC(=O)c2nc3c(s2)CN(C)CC3)C1` (as salt: hydrochloride) [Example 172, N-[(3R,4R)-4-{[(5-Chloroindol-2-yl)carbonyl]amino}-1-(2-methoxyacetyl)piperidin-3-yl]-5-methyl-4,5,6,7-tetrahydro-thiazolo[5,4-c]pyridine-2-carboxamide hydrochloride] yielded a melting point of 213 to 230 °C. On the same count and under the same terms, to `COCCN1CC[C@H](NC(=O)c2cc3cc(Cl)ccc3[nH]2)[C@H](NC(=O)c2nc3c(s2)CN(C)CC3)C1` (relative stereo) (as salt: hydrochloride) belongs 238 to 242 °C (dec.).
